Source: PubChem BioAssay AID1963973 (Molecular Pharmacology Branch, DTP, NCI, 2024)
pIC50: −log10 of the molar value.

Tested on: 883617-216-R-J1-PDC tumor spheroids, viability
Test: Anticancer human tumor 883617-216-R-J1-PDC patient-derived bladder carcinoma cell line growth inhibition [PI3K]
Conditions: spheroids with HUVEC and MSC; for pIC50: curve of first compound; for viability, T/C: stronger effect = lower value
In short: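 Three cell types, namely tumor cells, endothelial cells and mesenchymal stem cells, formed each spheroid. Combinations with four PI3K inhibitors were screened at clinically achievable concentrations decreasing by half-log, and spheroid viability was recorded.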

[1] = second compound 0.0316 µM, first compound 0.0316 µM
[2] = second compound 0.0316 µM, first compound 0.1 µM
[3] = second compound 0.0316 µM, first compound 0.316 µM
[4] = second compound 0.0316 µM, first compound 1 µM
[5] = second compound 0.0316 µM, first compound 3.16 µM
[6] = second compound 0.0316 µM, first compound 10 µM
[7] = second compound 0.1 µM, first compound 0.0316 µM
[8] = second compound 0.1 µM, first compound 0.1 µM
[9] = second compound 0.1 µM, first compound 0.316 µM
[10] = second compound 0.1 µM, first compound 1 µM
[11] = second compound 0.1 µM, first compound 3.16 µM
[12] = second compound 0.1 µM, first compound 10 µM
[13] = second compound 0.316 µM, first compound 0.0316 µM
[14] = second compound 0.316 µM, first compound 0.1 µM
[15] = second compound 0.316 µM, first compound 0.316 µM
[16] = second compound 0.316 µM, first compound 1 µM
[17] = second compound 0.316 µM, first compound 3.16 µM
[18] = second compound 0.316 µM, first compound 10 µM
[19] = second compound 1 µM, first compound 0.0316 µM
[20] = second compound 1 µM, first compound 0.1 µM
[21] = second compound 1 µM, first compound 0.316 µM
[22] = second compound 1 µM, first compound 1 µM
[23] = second compound 1 µM, first compound 3.16 µM
[24] = second compound 1 µM, first compound 10 µM
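Further: spheroids exposed to agents for 7 days before the viability read.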

CCCS(=O)(=O)Nc1ccc(F)c(C(=O)c2c[nH]c3ncc(-c4ccc(Cl)cc4)cc23)c1F + COc1c(OCCCN2CCOCC2)ccc2c3n(c(=NC(=O)c4cnc(N)nc4)nc12)CCN3
pIC50 (second compound 0.00316 µM): 5.39
pIC50 (second compound 0.01 µM): 5.44
pIC50 (second compound 0.0316 µM): > 7.50
pIC50 (second compound 0.1 µM): > 7.50
pIC50 (second compound 0.316 µM): > 7.50
pIC50 (second compound 1 µM): > 7.50
viability, T/C (second compound 0.00316 µM, first compound 0.0316 µM): 78.5%
viability, T/C (second compound 0.00316 µM, first compound 0.1 µM): 88.4%
viability, T/C (second compound 0.00316 µM, first compound 0.316 µM): 85.1%
viability, T/C (second compound 0.00316 µM, first compound 1 µM): 77.9%
viability, T/C (second compound 0.00316 µM, first compound 3.16 µM): 61.7%
viability, T/C (second compound 0.00316 µM, first compound 10 µM): 10.4%
viability, T/C (second compound 0.01 µM, first compound 0.0316 µM): 67%
viability, T/C (second compound 0.01 µM, first compound 0.1 µM): 72.6%
viability, T/C (second compound 0.01 µM, first compound 0.316 µM): 85.3%
viability, T/C (second compound 0.01 µM, first compound 1 µM): 61.7%
viability, T/C (second compound 0.01 µM, first compound 3.16 µM): 56.6%
viability, T/C (second compound 0.01 µM, first compound 10 µM): 13.1%
viability, T/C [1]: 38.8%
viability, T/C [2]: 45.7%
viability, T/C [3]: 47%
viability, T/C [4]: 44.2%
viability, T/C [5]: 36.9%
viability, T/C [6]: 12.8%
viability, T/C [7]: 25%
viability, T/C [8]: 19.9%
viability, T/C [9]: 17.6%
viability, T/C [10]: 17.8%
viability, T/C [11]: 18%
viability, T/C [12]: 7.55%
viability, T/C [13]: 5.17%
viability, T/C [14]: 7.28%
viability, T/C [15]: 6.6%
viability, T/C [16]: 8.36%
viability, T/C [17]: 9.94%
viability, T/C [18]: 4.39%
viability, T/C [19]: 3.48%
viability, T/C [20]: 4.22%
viability, T/C [21]: 4.32%
viability, T/C [22]: 5.19%
viability, T/C [23]: 6.41%
viability, T/C [24]: 2.37%

CC(Cn1ccc(-c2ccc(C#N)c(Cl)c2)n1)NC(=O)c1cc(C(C)O)[nH]n1 (centres undefined) + Cc1nc(NC(=O)N2CCCC2C(N)=O)sc1-c1ccnc(C(C)(C)C(F)(F)F)c1
pIC50 (second compound 0.0316 µM): < 5.00
pIC50 (second compound 0.1 µM): < 5.00
pIC50 (second compound 0.316 µM): > 7.50
pIC50 (second compound 1 µM): > 7.50
pIC50 (second compound 3.16 µM): > 7.50
pIC50 (second compound 10 µM): > 7.50
viability, T/C [1]: 86.2%
viability, T/C [2]: 77.4%
viability, T/C [3]: 85.3%
viability, T/C [4]: 101%
viability, T/C [5]: 100%
viability, T/C [6]: 93.8%
viability, T/C [7]: 73.8%
viability, T/C [8]: 60.6%
viability, T/C [9]: 67.9%
viability, T/C [10]: 78.9%
viability, T/C [11]: 70%
viability, T/C [12]: 67.4%
viability, T/C [13]: 45.4%
viability, T/C [14]: 40.1%
viability, T/C [15]: 50.6%
viability, T/C [16]: 42.5%
viability, T/C [17]: 55%
viability, T/C [18]: 55.9%
viability, T/C [19]: 30.8%
viability, T/C [20]: 31%
viability, T/C [21]: 28.8%
viability, T/C [22]: 24.7%
viability, T/C [23]: 28.8%
viability, T/C [24]: 28%
viability, T/C (second compound 3.16 µM, first compound 0.0316 µM): 13%
viability, T/C (second compound 3.16 µM, first compound 0.1 µM): 15.4%
viability, T/C (second compound 3.16 µM, first compound 0.316 µM): 15.5%
viability, T/C (second compound 3.16 µM, first compound 1 µM): 15.3%
viability, T/C (second compound 3.16 µM, first compound 3.16 µM): 16.2%
viability, T/C (second compound 3.16 µM, first compound 10 µM): 15.3%
viability, T/C (second compound 10 µM, first compound 0.0316 µM): 6.67%
viability, T/C (second compound 10 µM, first compound 0.1 µM): 7.22%
viability, T/C (second compound 10 µM, first compound 0.316 µM): 6.48%
viability, T/C (second compound 10 µM, first compound 1 µM): 6.6%
viability, T/C (second compound 10 µM, first compound 3.16 µM): 9.29%
viability, T/C (second compound 10 µM, first compound 10 µM): 7.26%
